Experimental data published in patent US11999805B1, “Peptide inhibitors of CRISPR-Cas9” (priority 2020, dated 2024).
pIC50: −log10 of the molar value. Entries after “also recorded” stand apart in the source; their conditions may differ. Like-named read-outs stand apart in the source and are kept apart here. Residues, ends and D or L forms follow the SMILES beside them. No end group written: not given here.

Experiments:
[1] = target: T1, SpyCas9 (Streptococcus pyogenes serotype M1, UniProt Q99ZW2); type: cell-based, S. pyogenes; parameters: host or cells: protein RNP lipofected into A549 reporter cells; conditions: for reduction of SpyCas9 editing (relative % CRISPR editing): A549 GFP reporter cells, 500 ng plasmid 24 h before SpyCas9 RNP, compared to plasmid control; for cell toxicity: A549 reporter cells
T1 sequence (Q99ZW2 whole entry): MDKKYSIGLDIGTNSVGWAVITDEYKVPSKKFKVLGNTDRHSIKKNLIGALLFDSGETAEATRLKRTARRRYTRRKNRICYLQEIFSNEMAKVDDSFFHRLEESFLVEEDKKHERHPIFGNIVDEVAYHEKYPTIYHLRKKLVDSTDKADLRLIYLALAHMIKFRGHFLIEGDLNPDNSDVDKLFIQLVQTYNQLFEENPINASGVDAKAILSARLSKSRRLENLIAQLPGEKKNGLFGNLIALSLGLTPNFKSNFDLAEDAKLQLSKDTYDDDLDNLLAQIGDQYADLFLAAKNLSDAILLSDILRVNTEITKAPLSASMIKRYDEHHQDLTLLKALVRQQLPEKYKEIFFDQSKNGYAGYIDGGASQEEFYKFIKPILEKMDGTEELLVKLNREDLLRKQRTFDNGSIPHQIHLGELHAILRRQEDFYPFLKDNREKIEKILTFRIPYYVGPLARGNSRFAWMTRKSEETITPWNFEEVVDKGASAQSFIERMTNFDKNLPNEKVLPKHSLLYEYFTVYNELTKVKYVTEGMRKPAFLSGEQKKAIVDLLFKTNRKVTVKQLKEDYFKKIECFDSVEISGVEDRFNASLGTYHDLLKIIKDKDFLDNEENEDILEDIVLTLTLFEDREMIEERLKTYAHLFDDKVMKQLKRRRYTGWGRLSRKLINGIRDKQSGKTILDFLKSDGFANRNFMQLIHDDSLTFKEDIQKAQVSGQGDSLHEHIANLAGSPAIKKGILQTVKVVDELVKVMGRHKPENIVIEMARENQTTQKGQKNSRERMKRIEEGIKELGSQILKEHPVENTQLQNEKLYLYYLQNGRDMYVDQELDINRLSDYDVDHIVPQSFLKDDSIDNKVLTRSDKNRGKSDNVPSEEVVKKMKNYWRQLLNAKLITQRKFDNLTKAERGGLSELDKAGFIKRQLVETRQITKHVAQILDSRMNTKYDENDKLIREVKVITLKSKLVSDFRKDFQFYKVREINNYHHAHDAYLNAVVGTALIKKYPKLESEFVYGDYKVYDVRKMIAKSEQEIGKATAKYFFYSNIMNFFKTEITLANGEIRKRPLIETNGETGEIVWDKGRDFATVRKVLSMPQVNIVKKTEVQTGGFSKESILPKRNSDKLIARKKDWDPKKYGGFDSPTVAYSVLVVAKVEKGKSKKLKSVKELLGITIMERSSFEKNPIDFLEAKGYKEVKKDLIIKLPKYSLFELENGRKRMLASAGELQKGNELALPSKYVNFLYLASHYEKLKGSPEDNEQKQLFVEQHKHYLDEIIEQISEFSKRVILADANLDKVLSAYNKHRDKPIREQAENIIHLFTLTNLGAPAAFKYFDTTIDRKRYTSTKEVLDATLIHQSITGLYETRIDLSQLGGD
Excerpt: The cell-based reporter assay was generated using an endonuclease surrogate reporter construct expressed in A549 cells. This construct was composed of genes encoding two fluorescent proteins (red fluorescent protein (RFP) and green fluorescent protein (GFP)) linked by the endonuclease targeting sequence. In the absence of endonuclease (e.g. Cas9) expression, the reporter was designed to express the RFP but not GFP as it is placed out of frame. Upon expression of Cas9 with a targeting gRNA, the RNP introduces a double stranded break at the target site upstream of the GFP genes leading to frameshift mutations and expression of GFP (FIG. 7). An AAVS1 protospacer and PAM sequence used for targeting by SpyCas9 RNP is in between the RFP and GFP genes. RNP targeting to the AASV1+PAM sequence in the cell's nucleus results in a DSB and error prone NHEJ will likely cause either of the GFP genes to now become in-frame and induce GFP expression. The expression of GFP is strictly dependent on the presence of nuclease activity from endonucleases that specifically recognizes the target sequence in the reporter construct. A549 reporter cells for SpyCas9 were reverse transfected with 100-500 ng of indicated plasmids using Lipofectamine, the plasmids were at a 1:1 ratio with SpyCas9 RNP. […] After 24 hours the media was changed, and 100-500 ng of SpyCas9 RNP was forward transfected using CRISPRMax (Thermo Fisher).
Editing was assessed at 48 hours and 72 hours post transfection using the CX7 plate imager and/or flow cytometry using an ACCURI C6 flow cytometer (BD BIOSCIENCES) with FCS EXPRESS SOFTWARE (DE NOVO SOFTWARE). Cells were counted as edited if their FL-1 fluorescence was greater than that of the no RNP control. […] Error bars represent ±SD across technical replicates (n=2).

[2] = target: T1, SpyCas9; type: biochemical, S. pyogenes; conditions: for pIC50: read-out: SpyCas9 IC50, FRET cleavage assay, concentration curves, 0.5 μM Cas9, 50 nM DNA substrate
Procedure: (§1) To determine whether synthetic peptides would inhibit Cas9 cleavage activity, 200 peptide sequences were selected for chemical synthesis based on the following criteria: (1) peptides enriched after independent panning on RNP immobilized on both the Monomeric Avidin and NeutrAvidin columns, (2) Higher Boman index (>2.3), the computed potential protein-protein interaction for a given amino-acids sequence (3) a predicted instability index below 50. Theses peptides were screened at 200 μM for inhibition of Cas9 cleavage activity using the recently developed HT FRET-based assay using a dual-quencher substrate with low background and high sensitivity. See Seamon K J, Light Y K, Saada E A, Schoeniger J S, Harmon B. 2018. Versatile High-Throughput Fluorescence Assay for Monitoring Cas9 Activity. Analytical Chemistry 90:6913-6921. This assay specifically measures DNA substrate cleavage, and is able to differentiate between cleavage of a single strand of DNA and cleavage of both DNA strands.
(§2) Reactions (10 μL tubes) were set up in Cas9 reaction buffer (20 mM Tris-HCl, pH 7.5, 100 mM NaCl, 5 mM MgCl2, 0.1 mM EDTA) containing 50 nM annealed DNA substrate, 1.5 μM sgRNA, and 500 nM Cas9 in the wells of a black low volume 384-well plate. The reactions were incubated for 1 hour at ambient temperature; then, 10 μL of 8 M Gdn-HCl was added to quench the reaction before the plates were covered with an aluminum seal and incubated at 80° C. for 10 minutes. The fluorescence was read in a Tecan Infinite M1000 or SPARK plate spectrofluorometer (Tecan).
(§3) The peptides were diluted 2-fold from 200 to 12.5 μM and incubated for 1 hour with 500 nM SpyCas9, gRNA prior to addition of 50 nM FRET DNA substrate for 1 hour. […] Data are the average ±SD of three replicate wells.
(§4) For the 11 original peptides reactions (10 μL) were set up in Cas9 reaction buffer [20 mM Tris-HCl, pH 7.5, 100 mM NaCl, 5 mM MgCl2, 0.1 mM EDTA] containing 50 nM annealed DNA substrate, 1.5 μM sgRNA, and 0.5 μM Cas9 in the wells of a black low volume 384-well plate. The reactions were incubated for 1 hour at ambient temperature with the indicated concentration of peptide; then, 10 μL, of 8 M Guanidine-HCl was added to quench the reaction. The plates were covered with an aluminum seal and incubated at 75° C. for 10 minutes and cooled down to RT before reading.
(§5) The % inhibition was determined by subtracting normalized relative fluorescent value to Cas9 without peptides (% activity) from 100% cleavage activity of CjeCas9, SauCas9, SpyCas9 by FRET assay. Data are the average ±SD of eleven replicate wells from three technical replicates at the indicated concentration of peptides.
(§6) FIGS. 12A, 12B, and 12C show graphs of measurements and fitted curves of concentration dependent inhibition of mutated peptides against Cas9 variants. The inhibition was measured as relative fluorescent value to Cas9 without peptides (% activity) of CjeCas9 (line with squares), SauCas9 (line with diamonds), SpyCas9 (line with triangles) by FRET assay with the indicated concentration of peptides and compared to original peptides (line with circles). Data are the average ±SD of eleven replicate wells from three technical replicates.

[3] = target: T2, CjeCas9 (Campylobacter jejuni subsp. jejuni serotype O:2, UniProt Q0P897); assay: HT FRET-based Cas9 cleavage activity assay, CjeCas9; type: biochemical, C. jejuni
T2 construct: made in house; host or cells: E. coli BL21(star)DE3
T2 sequence (Q0P897 whole entry): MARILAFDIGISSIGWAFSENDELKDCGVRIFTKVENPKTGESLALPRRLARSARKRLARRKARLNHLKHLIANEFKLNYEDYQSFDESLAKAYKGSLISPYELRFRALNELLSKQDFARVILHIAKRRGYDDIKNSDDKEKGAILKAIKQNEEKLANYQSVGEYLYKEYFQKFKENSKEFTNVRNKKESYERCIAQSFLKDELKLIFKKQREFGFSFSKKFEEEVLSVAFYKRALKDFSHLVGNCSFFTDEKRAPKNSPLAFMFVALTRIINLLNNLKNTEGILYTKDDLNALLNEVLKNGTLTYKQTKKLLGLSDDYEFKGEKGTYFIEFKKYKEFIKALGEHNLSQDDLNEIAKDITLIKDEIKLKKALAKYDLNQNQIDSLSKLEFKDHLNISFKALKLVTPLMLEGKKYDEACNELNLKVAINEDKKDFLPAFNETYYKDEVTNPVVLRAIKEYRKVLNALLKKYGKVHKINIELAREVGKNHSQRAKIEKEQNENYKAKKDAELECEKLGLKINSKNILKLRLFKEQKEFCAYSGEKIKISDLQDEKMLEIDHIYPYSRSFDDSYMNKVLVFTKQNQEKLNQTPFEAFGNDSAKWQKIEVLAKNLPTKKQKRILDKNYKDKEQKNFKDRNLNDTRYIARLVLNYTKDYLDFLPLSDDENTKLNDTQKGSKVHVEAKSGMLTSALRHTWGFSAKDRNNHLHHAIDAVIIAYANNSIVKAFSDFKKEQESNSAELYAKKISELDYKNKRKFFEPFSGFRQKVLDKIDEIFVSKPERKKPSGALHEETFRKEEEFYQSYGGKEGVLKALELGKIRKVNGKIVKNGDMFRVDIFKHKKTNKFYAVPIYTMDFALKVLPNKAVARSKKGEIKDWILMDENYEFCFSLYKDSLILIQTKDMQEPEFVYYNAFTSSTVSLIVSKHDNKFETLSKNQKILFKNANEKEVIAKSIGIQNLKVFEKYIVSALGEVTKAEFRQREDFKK
Procedure: (§7) To evaluate the ability of identified peptides to inhibit other Cas9 variants, SauCas9 and CjeCas9 cleavage assays were used to quantitatively measure changes in activity. […] The inhibition was measured as relative fluorescent value to Cas9 without peptides (% activity) of CjeCas9 (Top), SauCas9 (middle), SpyCas9 (bottom) by FRET assay with the indicated concentration of peptides. Data are the average ±SD of eleven replicate wells from three technical replicates.
as §4, §5, §6

[4] = target: T3, SauCas9 (Staphylococcus aureus, UniProt J7RUA5); assay: HT FRET-based Cas9 cleavage activity assay, SauCas9; type: biochemical, S. aureus
T3 construct: made in house; host or cells: E. coli BL21(star)DE3
T3 sequence (J7RUA5 whole entry): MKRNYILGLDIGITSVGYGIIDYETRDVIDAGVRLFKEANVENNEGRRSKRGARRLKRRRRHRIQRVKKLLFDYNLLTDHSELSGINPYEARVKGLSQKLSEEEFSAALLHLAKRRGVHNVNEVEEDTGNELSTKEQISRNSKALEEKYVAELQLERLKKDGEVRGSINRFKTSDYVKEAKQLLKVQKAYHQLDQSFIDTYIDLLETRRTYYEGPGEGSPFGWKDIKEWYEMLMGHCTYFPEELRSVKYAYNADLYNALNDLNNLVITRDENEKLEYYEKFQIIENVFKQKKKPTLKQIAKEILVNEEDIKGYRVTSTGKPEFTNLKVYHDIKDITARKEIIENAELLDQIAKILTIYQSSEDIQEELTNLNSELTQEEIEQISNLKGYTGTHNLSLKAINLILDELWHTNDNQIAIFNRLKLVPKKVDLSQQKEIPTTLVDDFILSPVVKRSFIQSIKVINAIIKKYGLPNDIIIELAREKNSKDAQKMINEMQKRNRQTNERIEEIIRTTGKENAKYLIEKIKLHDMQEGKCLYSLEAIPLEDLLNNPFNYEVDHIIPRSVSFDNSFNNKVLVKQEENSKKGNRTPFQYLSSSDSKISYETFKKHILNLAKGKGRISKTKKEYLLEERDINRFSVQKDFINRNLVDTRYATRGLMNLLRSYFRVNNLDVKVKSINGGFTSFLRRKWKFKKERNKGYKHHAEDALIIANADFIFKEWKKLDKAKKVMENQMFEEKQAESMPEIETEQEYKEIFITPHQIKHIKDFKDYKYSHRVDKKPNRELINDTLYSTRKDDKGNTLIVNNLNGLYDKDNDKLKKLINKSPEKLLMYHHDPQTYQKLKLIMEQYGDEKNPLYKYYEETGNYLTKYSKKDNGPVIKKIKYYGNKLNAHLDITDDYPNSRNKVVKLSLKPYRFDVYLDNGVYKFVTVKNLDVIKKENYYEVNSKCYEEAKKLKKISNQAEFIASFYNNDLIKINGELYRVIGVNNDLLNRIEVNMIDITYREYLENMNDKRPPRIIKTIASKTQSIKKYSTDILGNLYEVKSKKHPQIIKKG
Procedure: as §7, §4, §5, §6

[5] = target: T1, SpyCas9; assay: Beacon DNA binding assay (Cas9 RNP binding to DNA substrate); parameters: species or system S. pyogenes; conditions: for binding of SpyCas9 RNP to DNA substrate (beacon fluorescence): peptide 40 μM, SpyCas9 500 nM, DNA substrate 50 nM
Procedure: To determine the mechanism of action of these peptide inhibitors, a binding assay was performed to determine if inhibitors are blocking Cas9 RNP binding to the DNA substrate. The beacon DNA binding assay was adapted and performed as described in Mekler V, Minakhin L, Semenova E, Kuznedelov K, Severinov K. 2016. Kinetics of the CRISPR-Cas9 effector complex assembly and the role of 3′-terminal segment of guide RNA. Nucleic Acids Res 44:2837-45. DNA probes were prepared from unmodified and chromophore-labeled DNA oligonucleotides synthesized by Integrated DNA Technologies. Equimolar amounts of synthetic complementary strands were mixed in a buffer containing 40 mM Tris, pH 7.9, 100 mM NaCl; heated for 2 min at 90° C. and slowly cooled to 20° C. The PAM-distal ends of the beacon target and non-target strands were labeled with fluorescein and Iowa Black® FQ, respectively. Both beacons mimic native target DNA and bind Cas9/sgRNA. The fluorescent signal is increased when Cas9 binds the DNA substrate and a helix forms with the target substrate strand and gRNA resulting in dissociation of oligo 3, leading to increase in fluorescent signal.
Data are the average ±SD of three replicate wells.

[6] = system: SpyCas9; type: biochemical, S. pyogenes
Procedure: as §1, §2, §3, §4, §5, §6

Row | Compound | pIC50 [2] | pIC50 [3] | pIC50 [4] | also measured
1 | CC[C@H](C)[C@H](NC(=O)[C@H](CCCNC(=N)N)NC(=O)[C@H](Cc1ccc(O)cc1)NC(=O)[C@H](Cc1ccc(O)cc1)NC(=O)[C@@H](N)CC(C)C)C(=O)N[C@@H](CCSC)C(=O)N[C@@H](CC(C)C)C(=O)N[C@@H](CO)C(=O)N[C@@H](CS)C(=O)N1CCC[C@H]1C(=O)N[C@@H](CCCCN)C(=O)N[C@@H](Cc1ccc(O)cc1)C(=O)N[C@@H](Cc1ccc(O)cc1)C(=O)N1CCC[C@H]1C(=O)N[C@@H](CS)C(=O)N[C@@H](CCC(=O)O)C(=O)N[C@@H](CC(C)C)C(=O)N[C@H](C(=O)NCC(=O)N[C@@H](Cc1c[nH]cn1)C(=O)N[C@H](C(=O)N[C@@H](CO)C(=O)O)[C@@H](C)O)C(C)C [Peptide 50] (H-LYYRIMLSCPKYYPCELVGHTS-OH) | 3.84 | – | – | reduction of SpyCas9 editing (relative % CRISPR editing) [1]: 30±1.4%; cell toxicity [1]: without cell toxicity
2 | DGSLKILLRYNGCHYRLLQRSL [Peptide 90-3-50] | 4.18 | < 3.70 | < 3.70 | –
3 | DRSHKILLCYNGRNKRLLLRRL [Peptide 90-2-18] | 4.33 | 4.13 | 4.17 | –
4 | DRSHKILLRHSGCLYRFLQRYL [Peptide 90-2-5] | 4.06 | < 3.70 | 4.04 | –
5 | DRSHKILLRYNGCHYRLLQRSL [Peptide 90] | 3.94 | – | – | reduction of SpyCas9 editing (relative % CRISPR editing) [1]: 35±2.1%; cell toxicity [1]: without cell toxicity
6 | DRSQKIFLRYNRCRYRLLQRGL [Peptide 90-1-18] | 4.32 | 4.13 | 4.23 | –
7 | GDPNSRRSHIARLLAMSLTWYS [Peptide 99-1-1] | 4.20 | 3.98 | 4.00 | –
8 | IAGFRREWFNQNTYFENWHADR [Peptide 15] | – | – | – | reduction of SpyCas9 editing (relative % CRISPR editing) [1]: 21±4.2%; cell toxicity [1]: without cell toxicity
9 | KERHRSLMRTTVKYYSLCLGGT [Peptide 82-2-12] | 4.45 | 4.06 | 4.16 | –
10 | KERRRSLMQLSVKSNSLFLGGT [Peptide 82] | – | – | – | mechanism subset: blocks Cas9 RNP binding to target DNA or other mechanism [5]: inhibit CACs9 RNP cleavage by another mechanism
11 | KERRRSMMQLSVKSYTLFLGGT [Peptide 82-2-21] | 4.50 | 4.29 | 4.39 | activity against SpyCas9, SauCas9 and CjeCas9 (in words) [6]: particularly strong activity
12 | LNVKIENAHLTTNLSTMPLVLC [Peptide 63-2-87] | < 3.70 | 4.04 | < 3.70 | –
13 | LNVKIGNAHLTTIMSTMPLVLC [Peptide 63] | – | – | – | mechanism subset: blocks Cas9 RNP binding to target DNA or other mechanism [5]: inhibit CACs9 RNP cleavage by another mechanism
14 | LRQISNTSIVMGTTPSSVAVCG [Peptide 61] | – | – | – | mechanism subset: blocks Cas9 RNP binding to target DNA or other mechanism [5]: inhibit CACs9 RNP cleavage by another mechanism
15 | NRSHKILLHYNGCHYRLFLRSL [Peptide 90-1-27] | 4.55 | 4.23 | 4.35 | activity against SpyCas9, SauCas9 and CjeCas9 (in words) [6]: particularly strong activity
16 | PNVKIGKAHLTTIMSTMPLIIC [Peptide 63-2-27] | 4.09 | < 3.70 | 4.02 | –
17 | RDPNSRRSHIARLLAMSLTWYS [Peptide 99-2-2] | 4.25 | < 3.70 | 3.96 | –
18 | RERRRSLIQISVKSYPLFLGGT [Peptide 82-2-28] | 4.14 | < 3.70 | 3.81 | –
19 | RLYHQCFLACLIDRQSPRNV [Peptide 73] | – | – | – | mechanism subset: blocks Cas9 RNP binding to target DNA or other mechanism [5]: block Cas9 RNP binding to the target DNA; binding of SpyCas9 RNP to DNA substrate (beacon fluorescence) [5]: unaltered; also recorded: did not reduce substrate binding
20 | RRSHIAWLLAMSLTWYS [Peptide 99] | – | – | – | activity of CjeCas9 (% activity, FRET) ([3]; peptide 100 μM): significantly reduced activity; activity of CjeCas9 (% activity, FRET) ([3]; peptide 200 μM): significantly reduced activity; activity of SpyCas9 (% activity, FRET) ([2]; peptide 100 μM): significantly reduced activity; activity of SpyCas9 (% activity, FRET) ([2]; peptide 200 μM): significantly reduced activity; mechanism subset: blocks Cas9 RNP binding to target DNA or other mechanism [5]: block Cas9 RNP binding to the target DNA; binding of SpyCas9 RNP to DNA substrate (beacon fluorescence) [5]: significantly reduced; also recorded: reducing binding; activity of SauCas9 (% activity, FRET) ([4]; peptide 100 μM): significantly reduced activity; activity of SauCas9 (% activity, FRET) ([4]; peptide 200 μM): significantly reduced activity
21 | TESIRSYFAMTIRRNH [Peptide 80] | – | – | – | mechanism subset: blocks Cas9 RNP binding to target DNA or other mechanism [5]: block Cas9 RNP binding to the target DNA
22 | VCAFSADESLLIRRRHQRRRAG [Peptide 60] | 4.04 | – | – | reduction of SpyCas9 editing (relative % CRISPR editing) [1]: 30±2.3%; cell toxicity [1]: without cell toxicity
23 | VRVFSAYERLLIRRRRRRRRAG [Peptide 60-1-10] | 4.57 | 4.52 | 4.56 | activity against SpyCas9, SauCas9 and CjeCas9 (in words) [6]: particularly strong activity
24 | VSAYSADESLLIRRRRRRRRAG [Peptide 60-1-56] | 4.35 | 4.16 | 4.20 | –
